According to patent US10059655B2, “Lipids and lipid compositions for the delivery of active agents” (priority 2013, dated 2018):

What was measured:
[1] = Measurement of siRNA encapsulation (SYBR Gold fluorescence); assay type: physicochemical; conditions: FVII siRNA in LNP
Experimental: The lipid nanoparticles (LNPs) were formed by mixing equal volumes of lipids dissolved in alcohol with siRNA dissolved in a citrate buffer by an impinging jet process. The lipid solution contains a cationic lipid compound of the invention, a helper lipid (cholesterol), an optional neutral lipid (DSPC) and a stealth lipid (S010, S024, S027, or S031) at a concentration of 8-16 mg/mL with a target of 12 mg/mL in an alcohol. The siRNA to total lipid ratio is approximately 0.05 (wt/wt). Where a LNP formulation contains four lipid components, the molar ratios of the lipids ranges from 20 to 70 mole percent for the cationic lipid with a target of 40-60, the mole percent of helper lipid ranges from 20 to 70 with a target of 30 to 50, the mole percent of neutral lipid ranges from 0-30, the mole percent of PEG lipid has a range from 1 to 6 with a target of 2 to 5. The concentration of siRNA solution ranges from 0.7 to 1.0 mg/mL with a target of 0.8 to 0.9 mg/mL in a sodium citrate: sodium chloride buffer pH 4-6, with a target of 4.5-5.5. The LNPs are formed by mixing equal volumes of lipid solution in ethanol with siRNA dissolved in a citrate buffer by an impinging jet process through a mixing device with ID ranging from 0.25 to 2.0 mm at a flow rate from 10 to 640 mL/min. The mixed LNP solution is held at room temperature for 0-24 hrs prior to a dilution step. The solution is then concentrated and diafiltered with suitable buffer by ultrafiltration process using membranes with a MW cutoff from 30 to 500 KD. The final product is sterile filtered and stored at 4° C.
SYBR Gold flourescence reagent is used for the determination of siRNA encapsulation in the DLP's. DLP's with and without triton x-100 are used to determine the free siRNA and total siRNA amounts. DLP's samples with and without triton X-100 were excited at 485 nm and flourescence emission is measured at 530 nm. Encapsulation efficiency is calculated based on the following formula: Encapsulation efficiency: [(free siRNA concentration−total siRNA concentration)/(total siRNA concentration)]×100% Encapsulation Data

[2] = Measurement of mRNA encapsulation in lipid nanoparticles (Quant-iT Ribogreen); assay type: physicochemical; conditions: Leptin mRNA in LNP
Method in brief: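 LNPs were formed by T-junction mixing of ethanolic lipids (cationic lipid:DSPC:cholesterol:PEG lipid 40:10:38:2) with mRNA in citrate pH 5.8–6.0 at N:P 4:1, then dialysed against PBS overnight at 4 °C. RiboGreen fluorescence (ex 480/em 520 nm) was read on samples diluted 400–2,000-fold in TE with or without 0.75% Triton X-100 and quantified against standard curves. Encapsulation % = (Triton − buffer concentration)/Triton concentration.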

| Compound | % encapsulation siRNA FVII [1] | % encapsulation mRNA Leptin [2] |
| --- | --- | --- |
| CCCCC/C=C\C/C=C\CCCCCCCC(=O)OCC(COC(=O)CCCCCCC/C=C\C/C=C\CCCCC)COC(=O)C1CCN(CC2CC2)CC1 [Example 9, (9Z,9′Z,12Z,12′Z)-2-(((1-(cyclopropylmethyl)piperidine-4-carbonyl)oxy)methyl)propane-1,3-diyl bis(octadeca-9,12-dienoate)] | 86.7% | – |
| CCCCC/C=C\C/C=C\CCCCCCCC(=O)OCC(COC(=O)CC(CCCCCCCC)CCCCCCCC)COC(=O)OCCCN(CC)CC (centres unmarked) [Example 22, (9Z,12Z)-3-(((3-(diethylamino)propoxy)carbonyl)oxy)-2-(((3-octylundecanoyl)oxy)methyl)propyl octadeca-9,12-dienoate] | 86.1% | – |
| CCCCC/C=C\C/C=C\CCCCCCCC(=O)OCC(COC(=O)CCCCCCCC(CCCCC)CCCCC)COC(=O)OCCCN(CC)CC (centres unmarked) [Example 24, (9Z,12Z)-3-(((3-(diethylamino)propoxy)carbonyl)oxy)-2-(((9-pentyltetradecanoyl)oxy)methyl)propyl octadeca-9,12-dienoate] | 89.1% | 86.6% |
| CCCCC/C=C\C/C=C\CCCCCCCC(=O)OCC(COC(=O)CCCC(CCCCCCC)CCCCCCC)COC(=O)OCCCN(CC)CC (centres unmarked) [Example 25, (9Z,12Z)-3-(((3-(diethylamino)propoxy)carbonyl)oxy)-2-(((5-heptyldodecanoyl)oxy)methyl)propyl octadeca-9,12-dienoate] | 88.7% | 95.3% |
| CCCCC/C=C\C/C=C\CCCCCCCC(=O)OCC(COC(=O)OCCN(C)C)COC(=O)C(OCCCCCCC)OCCCCCCC (centres unmarked) [Example 26, (9Z,12Z)-3-(2,2-bis(heptyloxy)acetoxy)-2-((((2-(dimethylamino)ethoxy)carbonyl)oxy)methyl)propyl octadeca-9,12-dienoate] | 80.0% | 96.9% |
